What is called IC50 is the concentration needed to halve the response being measured.

These results are taken from paper PMC5960634 (Biochemical pharmacology, 2018).

Several values for one entry are separate records, joined by “and”; a condition that tells them apart may be missing. Equal entries are not always repeated. Structures can show the parent of a compound that is named as a salt.

Series [1] deals with T1, recombinant full length human estrogen receptor alpha (ERα) (Homo sapiens, UniProt P03372). Description: [3H]-ketamine saturation radioligand binding assay. The conditions noted are these: read-out: KD of [3H]-ketamine binding to ERα (saturation binding); nine concentrations of [3H]-ketamine, 4 nM to 400 nM; non-linear regression.
T1 sequence (P03372 whole entry): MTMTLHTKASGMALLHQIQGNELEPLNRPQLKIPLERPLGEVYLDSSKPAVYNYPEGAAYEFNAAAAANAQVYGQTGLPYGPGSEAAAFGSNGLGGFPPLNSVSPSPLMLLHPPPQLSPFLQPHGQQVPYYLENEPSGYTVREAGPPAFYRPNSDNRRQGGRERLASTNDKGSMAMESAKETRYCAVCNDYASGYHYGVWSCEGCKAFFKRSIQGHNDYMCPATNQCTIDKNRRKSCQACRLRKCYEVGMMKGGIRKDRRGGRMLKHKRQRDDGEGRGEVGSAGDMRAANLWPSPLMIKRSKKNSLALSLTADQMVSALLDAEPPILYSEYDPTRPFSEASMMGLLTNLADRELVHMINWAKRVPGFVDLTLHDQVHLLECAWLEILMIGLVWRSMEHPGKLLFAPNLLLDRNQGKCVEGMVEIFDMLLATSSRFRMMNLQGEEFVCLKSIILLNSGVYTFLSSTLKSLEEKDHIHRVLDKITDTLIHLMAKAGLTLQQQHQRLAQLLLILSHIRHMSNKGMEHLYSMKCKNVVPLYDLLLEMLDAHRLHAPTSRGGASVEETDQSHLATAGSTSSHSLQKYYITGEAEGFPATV
The target of series [2] is T1, recombinant full length human estrogen receptor alpha (ERα). Put plainly: [3H]-ketamine displacement assay. Format: binding.
Series [3] has the same target. The note with it: 1 nM [3H]-estradiol; competitor 4 nM - 40 mM.
For series [4] the following is noted: brains of female than in male mice; cited from earlier work.

On to `CNC1(c2ccccc2Cl)CCCCC1=O` (racemic) [[^3H]-ketamine, (±)-Ketamine [N-methyl-^3H] hydrochloride], for which the Kd in series [1] is 0.345 µM and 0.344 µM. For the compound `N[C@]1(c2ccccc2Cl)CCC[C@H](O)C1=O` [(2S,6S)-HNK], in series [2], the IC50 is 3.53 ± 0.2 µM. For `CNC1(c2ccccc2Cl)CCCCC1=O` (stereo not drawn) [ketamine, Ketamine hydrochloride], the IC50 in series [2] amounted to 2.31 ± 0.1 µM. In addition, in series [3], the “displacement of [3H]-estradiol binding to ERα (in words)” value is listed as “failed to displace”. As to `N[C@@]1(c2ccccc2Cl)CCC[C@@H](O)C1=O` [(2R,6R)-HNK], the IC50 in series [2] is 3.4 ± 0.2 µM. In the case of `N[C@@]1(c2ccccc2Cl)CCC[C@@H](O)C1=O` [(2S,6S;2R,6R)-HNK, (2S,6S;2R,6R)-hydroxynorketamine], the “brain concentrations, female versus male mice” value in series [4] is “three fold higher”.
